Measured values from patent publication US20130085109A1, “METHODS OF CARDIOVASCULAR PATIENT TREATMENT USING SUBSTANCES SUFFICIENT TO REDUCE ACTIN DEPOLYMERIZATION” (priority 2008, published 2013).

How the values were obtained:
[1] = tested on: porcine femoral artery preparation; test: NO metabolite (nitrite) production in perfused porcine femoral artery preparation, forward and reverse flow; conditions: tempol added to perfusate
Experimental: A purfusate was passed through an in vitro porcine femoral artery preparation in the forward and reverse flow directions and the levels of NO metabolite (nitrite) were measured at various flowrates in the forward and reverse directions. Thereafter, tempol was added to the perfusate and the levels of NO metabolite (nitrite) were again measured at various flowrates in the forward and reverse directions. […] The asterisk denotes statistical significance by ANOVA analysis between groups at the respective flows (P<0.05).

[2] = tested on: actin in carotid artery endothelial cells; conditions: reported previously; cited from earlier work
[3] = tested on: carotid artery rings (endothelial cells); test: Superoxide measurement (L012 luminescence) in carotid artery rings treated in vitro; format: cell-based, swine; conditions: for increase of superoxide production vs untreated samples: artery samples under normal forward flow
Experimental: For superoxide measurements, carotid arteries (vessel segments 104) from both sides were quickly removed and placed into a heated (37° C.) chamber filled with HEPES buffered PSS containing (in mM): D-glucose, 5.5; KCl, 4.7; NaCl, 142; HEPES sodium salt, 2.7; MgSO4, 1.17; CaCl2, 2.79; at pH 7.4. For NADPH oxidase activity assays or protein expression measurements by western blot, the left and right carotid arteries were removed and saved in a −80° C. freezer until analysis.
The harvested vessels (vessel segments 104) were cut into small rings at approximately 3 mm in length in 37° C. HEPES PSS buffer. The rings were first transferred into […] with HEPES-PSS and incubated at 37° C. for 5 minutes. Various compounds [cytochalason D, latrunculin B, jasplakinolide, and phorbol 2-myrisate 13-acetate (PMA)] were then added into each well for treatment. The L012 (100 μM) was added last and the luminescence was recorded for 60 minutes at 1 minute intervals using a plate reader from Perkin Elmer (En vision Xcite Multilabel Reader, Perkin Elmer, Shelton, Conn.) at ultra-luminecent mode. The total reaction volume was 200 μl. After each recording, the sample rings were air dried and weighed. Each condition was tested in triplicate. To remove the endothelial cells, the vessel ring was gently rubbed against the tip of a pair of forceps.
Basal superoxide production was detected in the carotid artery (vessel segment 104) samples obtained from control animals with forward blood flow as shown in FIG. 2A. Rings were incubated with or without treatments of cytochalasin D (cyt D), latrunculin (Latru) or jasplakinolide (Jasp) and the superoxide production were recorded using plate reader at ultrasensitive mode for luminescence to generate the results shown in FIG. 2A. The luminescence recorded from rings without treatment was considered at base level and taken as 100%. The luminescence recorded under other conditions was expressed as percentage of base level. The superoxide production induced by PMA was used as positive control as identified in FIG. 2B. Each condition was tested in triplicate from each animal. The significance of increased superoxide production was test using ANOVA (p=0.004 for cytochalasin D, n=10 and p=0.044 for Latrucillin, n=3), and the data are mean±1SD.

[4] = tested on: actin in carotid artery endothelial cells; test: Actin immunostain (Alexa Fluor488-phalloidin) of carotid artery rings, in vitro actin depolymerization; format: cell-based, swine; conditions: 10 μM cytochalasin D, 30 minutes, 37° C.
Experimental: For actin staining, vessels under different conditions were cut into 4 mm rings and immediately fixed for 2 hours in 4% methanol-free formaldehyde-PBS solution (Thermo Scientific, Rockford, Ill.). For in vitro actin depolymerization immunochemistry, 3 to 4 mm carotid artery ring from control animal were incubated with 10 μM cytochalasin D for 30 minutes. Samples were fixed for 2 hours and then processed for actin staining.
The fixed samples were permeablized by 0.1% tritonX-PBS solution. After non-specific sites were blocked by 1% BSA in PBS, actin was labled by incubating samples with Alexa Fluor488-phalloidin (Invitrogen, Carlsbad, Calif.) for 30 minutes at room temperature. After labeling, each sample was cut into a 3×3 mm piece and mounted on glass slide and covered with a glass cover slip in the presence of 70% glyceral-PBS and sealed with glue. The samples were observed under a Zeiss confocal microscope (Zeiss 510 meta) and images were captured under 100× objective oil lens with excitation at 488 nm and emission at BP 500-530 nm.
All samples were viewed under confocal microscopy (Zeiss 510 meta) with 100× objective with excitation at 488 nm and Emission at BP 500-530 nm.

[5] = tested on: p47phox; test: p47phox phosphorylation (phosphoserine immunoprecipitation and western blot), in vitro; format: cell-based, swine; conditions: cytochalasin D treatment in vitro; p<0.05
Experimental: For p47^phox phosphorylation measurements, the total protein with phosphoserine was first immunoprecipitated according to a known method. Briefly, samples were first incubated with rabbit polyclonal antibody to phosphoserine (Abcam, Cambridge, Mass.) for 2 hours at 4° C. Samples were then mixed with Protein G PLUS-Agarose (Santa Cruz Biotechnology, Santa Cruz, Calif.) and incubated overnight at 4° C. Samples were then centrifuged and washed three times with lysis buffer. The pellet was resuspended in loading buffer and denatured. The p47^phox was then measured by western blot.
P47^phox phosphorylation was examined further to understand the molecular basis for increased superoxide production subsequent to actin depolymerization and flow reversal, as shown in FIGS. 7A-7D. The phosphorylated P47^phox was standardized by total P47^phox. The level of phosphorylated P47^phox at basal level in vitro (FIG. 7A) or under forward flow (FF) condition in vivo (FIG. 7C) were taken as 100% and the level of phosphorylated P47^phox after cytochalasin D treatment or under reversed flow (RF) condition were expressed as percent thereof. […] The data are mean and SD of at least three experiments from different animals (*p<0.05).

[6] = tested on: carotid artery with reverse flow; test: Superoxide measurement (L012 luminescence) in carotid arteries after in vivo reverse flow with drug treatment; design: species or system swine; conditions: apocynin bolus 4 mg/kg i.v. then 3.5 μg/kg/min i.v.
Description: To create a full reverse flow, and as part of an exemplary system 100 of the present disclosure, two tubes 102, such as two pieces of silicone tubing, were inserted into the two respective ends of the isolated vessel segment 104 as shown in FIGS. 1A and 1B. In at least one embodiment, tubes 102 are configured to fit within a portion of isolated vessel segment 104, and in at least another embodiment, tubes 102 are configured so surround the ends of vessel segment and are held in place with a connector (not shown). […]
The harvested vessels (vessel segments 104) were cut into small rings at approximately 3 mm in length in 37° C. […] The L012 (100 μM) was added last and the luminescence was recorded for 60 minutes at 1 minute intervals using a plate reader from Perkin Elmer (En vision Xcite Multilabel Reader, Perkin Elmer, Shelton, Conn.) at ultra-luminecent mode. […]
Samples were obtained from carotid arteries with forward (solid bar) or reverse (empty bar) flow (FF or RF, respectively) or reverse flow plus jasplakinolide (Jasp) treatment (lined bar). The basal level of superoxide measured under forward flow condition was taken as 100%, and all other measurements were expressed as percentage to the basal level. Each measurement was performed in triplicate and data were expressed as mean±1SD. […]

[7] = tested on: NADPH oxidase; test: NADPH oxidase activity assay in subcellular membrane preparations of vessels; format: in vivo, swine; conditions: samples from animals treated with apocynin
Experimental: In some experiments (n=3), the carotid arteries were treated with jasplakinolide to stablize the actin. […] The right side vessel 114 was filled with saline and served as control. The reverse or forward flows were then ensured for 2 hrs (for superoxide measurement) or 4 hrs (for NADPH oxidase measurment by western blot) after clamps 116, 118 were released. A low concentration of jasplakinolide was used, which was sufficient to stabilize actin and to avoid possible non-specific effects at high concentration. […]
Stored samples were placed in ice cold lysis buffer containing 20 mM KH2PO4, 1 mM EGTA and protease inhibitor cocktail (Sigma-Aldrich, St. Louis, Mo.) and homogenized with an electric homogenizer (Power Gen 35, Fisher Scientific) for 20 seconds each. […] The enzyme activity was determined in 200 μl assay buffer at pH7.4 containing the following (in mM): HEPES, 25; NaCl, 120; KCl, 5.9; MgSO4, 1.2; CaCl2, 1.75; glucose, 11; β-NADPH, 0.1; and L012, 0.1. The reaction started by adding 10 μL of homogenate, and the luminescence was measured every 15 seconds for 5 minutes by Perkin Elmer plate reader at ultra-sensitive mode. The protein concentration was determined by BCA kit (Bio-Rad) and the results of enzyme activity were standardized to protein level of each sample. […]

[8] = tested on: carotid artery wall; test: Superoxide in carotid artery wall by dihydroethidine fluorescence (laser confocal microscopy) after flow reversal; format: in vivo; conditions: apocynin 1 mM in drinking water concurrently with carotid flow reversal; vs flow reversal without apocynin
Experimental: The carotid arteries of animals were removed and examined by laser confocal microscopy excitation (514 nm; emission, 605 nm; Objective, 40x. C.3.a. Visualization of NO and O2-Using Fluorescence) following perfusion under conditions of: Control (C), Flow Reversal (FR), and Apocynin+Flow Reversal (AC). The apocynin was administered in drinking water (1 mM) to an animal concurrently with carotid flow reversal. Dihydroethidine (DHE), a fluorescent dye, was used to indicate superoxide in arterial wall.

CC1(C)CC(O)CC(C)(C)N1[O] [tempol, 4-hydroxy-2,2,6,6-tetramethyl-4-piperidine-N-oxyl]
NO production (NO metabolite nitrite) ([1]; forward flow): did not cause a statistically significant increase
NO production (NO metabolite nitrite) ([1]; reverse flow, P<0.05): did significantly increase

C=C1[C@@H](C)[C@H]2[C@H](Cc3ccccc3)NC(=O)[C@]23[C@H](OC(C)=O)/C=C/[C@@](C)(O)C(=O)[C@@H](C)C/C=C/[C@H]3[C@@H]1O [cytochalasin D]
cytochalasin D concentration at which all long actin filament bundles were disrupted and replaced by focal aggregates of F-actin [2]: ≥ 2 µM
cytochalasin D concentration at which changes of actin cytoskeleton were visible [2]: 20 nM
increase of superoxide production vs untreated samples ([3]; 10 μM cytochalasin D): about 5 fold
superoxide production in vessel with reverse flow ([3]; cytochalasin D added to samples from reverse flow vessel): further increase
actin filament pattern [4]: significant disruption of actin filaments
p47phox phosphorylation vs untreated sample [5]: increased

C/C1=C/C(=O)O[C@@H]2C[C@@H](CC[C@H](C)/C=C\CC1)O[C@@](O)([C@@H]1CSC(=O)N1)C2 [latrunculin, latrunculin B]
increase of superoxide production vs untreated samples ([3]; 1 μM latrunculin): ~2 fold

COc1cc(C(C)=O)ccc1O [apocynin, 4-hydroxy-3-methoxy-acetophenone]
reversed flow induced superoxide production [6]: abolished
NADPH oxidase enzyme activity [7]: reduced
amount of superoxide present in artery wall (DHE fluorescence) [8]: reduced the amount of superoxide
